88 molecules from the Bradley open melting point set (2014) can be followed below.

Regarding `O=C(/C=C/c1ccc(O)cc1)c1ccccc1` [4-hydroxychalcone], the melting point was determined as 184 °C. For `Nc1cnc2ccccc2c1` [3-aminoquinoline], the melting point was 94 °C. For `O=[N+]([O-])c1cccc(Cl)c1` [1-Chloro-3-nitrobenzene], the melting point came out at 45 °C.

`CCn1cc(C(=O)O)c(=O)c2ccc(C)nc21` displayed a melting point of 230 °C.

The molecule `CCCCCCCCCc1ccc(O)cc1` [4-n-nonylphenol] had a melting point of 45 °C. The molecule `BrCCBr` [1,2-dibromoethane] gave a melting point of 10 °C. Turning to `CCOC(=O)C(C#N)=NO` [ethyl isonitrosocyanoacetate], the melting point turned out to be 130 °C. Under `O=C2/N=C\1/N(c3cc(c(cc3/N=C/1C(=O)N2)C)C)CC(O)C(O)C(O)CO` (stereo not drawn) [riboflavin] stands 280 °C. Under `CC(=O)/C(C)=N\O` [(3Z)-3-(Hydroxyimino)butan-2-one] stands 75 °C; under `C1CCCC1` [Cyclopentane], -94 °C. `O=C(O)c1cc(Cl)cc(Cl)c1O` [3,5-dichlorosalicylic acid] displayed a melting point of 224 °C.

Regarding `O=C(O)c1cc(F)ccc1O` [5-fluorosalicylic acid], the melting point was 180 °C. Under `Cc1ccc(CC#N)cc1` [p-tolylacetonitrile] stands 18 °C; under `Nc1ccccc1C(O)(c1ccccc1)c1ccccc1` [(2-aminophenyl)(diphenyl)methanol], 122 °C. The value for `CCNc1ccccc1` [n-ethylaniline] was -63 °C; that for `CC(=O)Nc1ccc(C(C)=O)cc1Br` [4'-acetamido-3'-bromoacetophenone] was 140 °C. With `CC(C)CC(C)(C)C` [2,2,4-trimethylpentane], the melting point was -107 °C. Regarding `NS(=O)(=O)c1ccccc1Cl` [2-chlorobenzenesulfonamide], the melting point turned out to be 190 °C. Under `O=c1[nH]c2ccccc2o1` [2-benzoxazolinone] stands 140 °C; under `N#Cc1cccc([N+](=O)[O-])c1` [m-nitrobenzonitrile], 117 °C; under `Ic1cccc(I)c1` [m-diiodobenzene], 37 °C. The value for `C[C@]12C[C@H](O)[C@H]3[C@@H](CCC4=CC(=O)CC[C@@]43C)[C@@H]1CC[C@@H]2C(=O)CO` [corticosterone] was 145 °C; that for `COC(=O)CCCCCCCCC(=O)OC` [Dimethyl sebacate] was 26.5 °C. Under `NS(=O)(=O)c1cc2c(cc1Cl)NCNS2(=O)=O` stands 274 °C; under `NNC(=O)c1ccncc1` [isoniazid], 171 °C.

Turning to `C[C@]12CC[C@H]3[C@@H](CCC4=CC(=O)CC[C@@]43C)[C@@H]1CC[C@@H]2C(=O)CO` [deoxycorticosterone], the melting point was found to be 142 °C. Regarding `O=C(CCl)c1ccccc1` [2-Chloro-1-phenylethanone], the melting point is 55 °C. In turn, `O=C(O)[C@H]1CCCN1C(=O)OCc1ccccc1` [N-benzyloxycarbonyl-D-proline] showed a melting point of 77 °C. Under `O=C(O)CCCCC(=O)O` [adipic_acid] stands 153 °C; under `c1ccc2[nH]ccc2c1` [indole], 52 °C. In the case of `CCOC(=O)C(NC(C)=O)C(=O)OCC` [diethyl acetamidomalonate], the melting point is 98 °C.

Regarding `CCOc1ccc2ccccc2c1C(=O)O` [2-ethoxy-1-naphthoic acid], the melting point is 144 °C. The value for `CC(=O)Nc1ccc(O)cc1` [N-(4-Hydroxyphenyl)acetamide] was 170 °C; that for `CN(C)c1ccc(N)cc1` [N,N-dimethyl-p-phenylenediamine] was 36 °C. The value for `CCOC(=O)c1ccc(N)cc1` [Benzocaine, Ethyl 4-aminobenzoate] was 90 °C. Consider `CC(C)C=O` [2-Methylpropanal], for which the melting point was -65 °C. The value for `COc1ccc2c3c1O[C@H]1[C@@H](O)CC[C@H]4[C@@H](C2)N(C)CC[C@@]341` [Dihydrocodeine] was 112 °C; that for `O=C(O)c1cc(Cl)c(O)c(Cl)c1` [3,5-dichloro-4-hydroxybenzoic acid] was 268 °C.

With `O=C(/C=C/c1ccc(-c2cccc([N+](=O)[O-])c2)o1)c1ccccc1` [(2E)-3-[5-(3-Nitrophenyl)-2-furyl]-1-phenylprop-2-en-1-one], the melting point is 147 °C.

Molecule `OC1(c2ccc(Cl)cc2)CCNCC1` [4-(4-chlorophenyl)-4-hydroxypiperidine] yielded a melting point of 139 °C. Regarding `C=C[C@H]1C[N@@]2CC[C@H]1C[C@H]2[C@H](O)c1ccnc2ccc(OC)cc12` [quinine], the melting point is 177 °C. Turning to `Oc1cccc(Br)c1` [m-bromophenol], the melting point worked out at 31 °C. Under `O=C(O)c1ccccc1CO` [o-hydroxymethyl_benzoic_acid] stands 126 °C; under `Clc1cc(Cl)c(I)c(Cl)c1` [1,3,5-trichloro-2-iodobenzene], 55 °C. Consider `O=Cc1c(-c2ccccc2)nc2n1CCS2` [2,3-dihydro-6-phenylimidazo[2,1-b]thiazole-5-carboxaldehyde], for which the melting point was 123 °C.

As to `Cc1cccc([N+](=O)[O-])c1C` [3-nitro-o-xylene], the melting point was determined as 14 °C.

In turn, `Cc1ccccc1F` [2-fluorotoluene] registered a melting point of -87 °C.

With `CCOC(=O)C1c2ccccc2Oc2ccccc21` [ethyl xanthene-9-carboxylate], the melting point came out at 67 °C. Under `CC(C)CCC[C@@H](C)[C@H]1CC[C@H]2[C@@H]3CC=C4C[C@@H](O)CC[C@]4(C)[C@H]3CC[C@]12C` [Cholesterol] stands 148 °C; under `O=[N+]([O-])c1cccc(S(=O)(=O)Cl)c1` [3-nitrobenzenesulfonyl chloride], 61 °C. `CCOCCOCCOCC` [1-Ethoxy-2-(2-ethoxyethoxy)ethane] registered a melting point of -44 °C. On to `O=C1CCCC1` [cyclopentanone], for which the melting point was -51 °C. Turning to `N[C@H](Cc1ccccc1)C(=O)O` [D-Phenylalanine], the melting point is 274 °C. Regarding `CCCCC(=O)CCCC` [5-nonanone], the melting point was -50 °C. Under `O=C[C@@H](O)[C@H](O)[C@H](O)CO` [D-arabinose] stands 156 °C; under `C1CCOC1` [tetrahydrofuran], -108 °C. Molecule `CC(=O)OC(C)=O` [Acetic anhydride] registered a melting point of -73 °C. In turn, `CC(=O)c1ccc(B(O)O)s1` [5-acetylthiophene-2-boronic acid] had a melting point of 145 °C. The molecule `Cc1ccc(C(C)C)cc1` [p-cymene] displayed a melting point of -68 °C. The value for `N#CCc1ccc(Cc2ccccc2)cc1` [4-benzylphenylacetonitrile] was 36 °C; that for `CN(C)C(=S)SSC(=S)N(C)C` [tetramethylthiuram disulfide] was 150 °C; that for `CC(=O)OC1CCC2(C)C(CCC3C4=C(CCC32)C(C)(C#Cc2ccccc2)CC4)C1` (stereo not drawn) [10,17-dimethyl-17-(phenylethynyl)gon-13-en-3-yl acetate] was 136 °C. The value for `CCCNC(=O)C(C(F)(F)F)C(F)(F)F` [propanamide, 3,3,3-trifluoro-N-propyl-2-(trifluoromethyl)-] was 106 °C; that for `COc1cccc(OC)c1O` [2,6-dimethoxyphenol] was 55 °C. In turn, `CCC1(CC)C(=O)NC(=O)NC1=O` [Barbital] came in with a melting point of 190 °C.

The molecule `O=C(O)c1cccnc1` [Nicotinic acid] returned a melting point of 237 °C.

Regarding `OC1COC2C(O)COC12` (stereo not drawn) [1,4:3,6-dianhydrohexitol], the melting point stood at 61 °C. The molecule `Cc1cc(=O)n(-c2ccccc2)n1C` [antipyrine] came in with a melting point of 113 °C.

Take `N#CCC(=O)c1ccccc1` [benzoylacetonitrile]: the melting point amounted to 81 °C. `Nc1cc(Cl)ccc1[N+](=O)[O-]` [5-Chlor-2-nitroanilin] showed a melting point of 119 °C. Under `NCC(O)c1ccccc1` (stereo not drawn) [2-Amino-1-phenylethanol] stands 57 °C; under `OB(O)c1ccnc(Cl)c1` [2-chloropyridine-4-boronic acid], 162 °C.

As to `Oc1ccc(Cl)c(Cl)c1` [3,4-dichlorophenol], the melting point was determined as 66 °C. Under `CC(=O)Nc1cccc2c(N)cccc12` [N-(5-aminonaphthalen-1-yl)acetamide] stands 166 °C; under `O=C=Nc1ccc(Cl)cc1Cl` [2,4-dichlorophenyl isocyanate], 59 °C. Take `Cc1ccc([N+](=O)[O-])cc1N` [2-methyl-5-nitroaniline]: the melting point was 107 °C.

In turn, `Nc1c(Br)cc([N+](=O)[O-])cc1Br` [2,6-dibromo-4-nitroaniline] showed a melting point of 207 °C.

With `C#CCCCCC` [1-heptyne], the melting point is -81 °C. `Nc1cc(Cl)ccc1Cl` [2,5-dichloroaniline] returned a melting point of 50 °C. `COP(=O)(OC)C(O)C(Cl)(Cl)Cl` (stereo not drawn) [Dimethyl (2,2,2-trichloro-1-hydroxyethyl)phosphonate] registered a melting point of 83 °C. Molecule `COc1ccc(NS(=O)(=O)c2ccc(N)cc2)nn1` [sulfamethoxypyridazine] yielded a melting point of 182 °C. The value for `C#CC(O)(c1ccccc1)c1ccccc1` [1,1-diphenyl-2-propyn-1-ol] was 46 °C. As for `CC(C)(C)c1cc(C(=Nc2ccccc2)Nc2ccccc2)cc(C(C)(C)C)c1O` [3,5-Di-tert-butyl-4-hydroxy-N,N'-diphenyl-benzamidine], the melting point turned out to be 131 °C. Under `Nc1c(Cl)cc([N+](=O)[O-])cc1[N+](=O)[O-]` [6-chloro-2,4-dinitroaniline] stands 157 °C; under `N#Cc1ccccc1O` [2-hydroxybenzonitrile], 94 °C; under `Cc1ccc([N+](=O)[O-])cc1Cl` [2-chloro-4-nitrotoluene], 60 °C. The value for `O=C(O)CCCCCCCCCCC(=O)O` [Dodecanedioic acid] was 129 °C. Under `CCCCCO` [Pentan-1-ol] stands -78 °C.

What is called melting point is the temperature of the solid-liquid transition.
